Assay results: ChEMBL document CHEMBL4483862, “Open-source discovery of chemical leads for next-generation chemoprotective antimalarials” (2018)
pIC50: −log10 of the molar value.

System: Plasmodium berghei
Experiment: Luciferase/luciferin-expressing antifolate-resistant parasites were used to infect a culture of HepG2 cells that were pre-incubated with compounds. Infected hepatocytes emit light due to the luciferase reaction. Assay results are presented as the percent inhibition of light emission compared to control. […]
Format: functional
Conditions: sporozoite; for IC90: read-out: LUCIFERASE INFECTION ASSAY - IC90
[1] = read-out: LUCIFERASE INFECTION ASSAY - IC50

| SMILES | IC90 [µM] | further results |
| --- | --- | --- |
| COc1ccc(-c2ccc3ncc(-c4cccc(C(=O)NCCN(C)C)c4)n3n2)cc1OC | 0.309 | pIC50 (HEPG2TOX_HILL_SLOPE 0.532, HEPG2TOX_R_SQUARED 0.94, PBLUC_HILL_SLOPE 3.74, PBLUC_R_SQUARED 0.793, read-out: LUCIFERASE INFECTION ASSAY - IC50): 6.76 |
| CCOc1cc(/C=C(/C(=O)NCc2ccc(Cl)cc2)c2nc3ccccc3[nH]2)ccc1OC | > 10 | pIC50 (HEPG2TOX_HILL_SLOPE 5.77, HEPG2TOX_R_SQUARED 0.35, PBLUC_HILL_SLOPE 0.685, PBLUC_R_SQUARED 0.126, read-out: LUCIFERASE INFECTION ASSAY - IC50): < 5.00 |
| Cc1onc(-c2ccccc2)c1-c1csc(-c2ccc(Oc3ccc(C(F)(F)F)cn3)cc2)n1 | 2.83 | pIC50 (HEPG2TOX_HILL_SLOPE 12.3, HEPG2TOX_R_SQUARED 0.647, PBLUC_HILL_SLOPE 12.5, PBLUC_R_SQUARED 0.454, read-out: LUCIFERASE INFECTION ASSAY - IC50): 5.63 |
| N#Cc1ccccc1OC(=O)Nc1ccc(SC(F)(F)F)cc1 | 1.82 | pIC50 (HEPG2TOX_HILL_SLOPE 3.54, HEPG2TOX_R_SQUARED 0.941, PBLUC_HILL_SLOPE 4.88, PBLUC_R_SQUARED 0.753, read-out: LUCIFERASE INFECTION ASSAY - IC50): 5.94 |
| COc1ccc2c(COC(=O)c3[nH]c(C)c(C(C)=O)c3C)cc(=O)oc2c1 | > 10 | pIC50 [1]: < 5.00 |
| Cc1cccc(NC(=O)CN2CCN(C(=O)c3csc(-c4ccc(C(C)C)cc4)n3)CC2)c1C | 3.81 | pIC50 (PBLUC_HILL_SLOPE 12.3, PBLUC_R_SQUARED 0.609, read-out: LUCIFERASE INFECTION ASSAY - IC50): 5.50 |
| O=C(c1cnc2ccc3ccccc3c2c1)c1cc(F)ccc1O | > 10 | pIC50 (HEPG2TOX_HILL_SLOPE 3.61, HEPG2TOX_R_SQUARED 0.979, PBLUC_HILL_SLOPE 3.48, PBLUC_R_SQUARED 0.782, read-out: LUCIFERASE INFECTION ASSAY - IC50): 5.27 |
| O=C(Nc1ccc(Oc2ccc3ccccc3c2)cc1)c1ccccc1 | 1.16 | pIC50 (HEPG2TOX_HILL_SLOPE 2.3, HEPG2TOX_R_SQUARED 0.782, PBLUC_HILL_SLOPE 2.18, PBLUC_R_SQUARED 0.822, read-out: LUCIFERASE INFECTION ASSAY - IC50): 6.37 |
| CC(=O)c1cc2c(cc1NC(=O)c1cccc(S(=O)(=O)N3c4ccccc4CC3C)c1)OCO2 (configuration not stated) | > 10 | pIC50 [1]: < 5.00 |
| CN(C)c1ccc(-c2ccc3nnc(-c4ccccc4)n3c2)cc1 | 4.59 | pIC50 (HEPG2TOX_HILL_SLOPE 1.89, HEPG2TOX_R_SQUARED 0.955, PBLUC_HILL_SLOPE 2.66, PBLUC_R_SQUARED 0.575, read-out: LUCIFERASE INFECTION ASSAY - IC50): 5.70 |
| CN1C(=O)Cc2cc(C3=NNC(=Nc4ccccc4F)SC3)ccc21 | > 10 | pIC50 [1]: < 5.00 |
| CCCN(CCC(=O)Nc1cccc(Cl)c1)CC1CC1 | > 11.2 | pIC50 [1]: < 4.95 |
| C#Cc1cccc(NC(=O)c2[nH]c(C)c(C(=O)OCC)c2C)c1 | > 10 | pIC50 [1]: < 5.00 |
| COCCCN1C(=O)N(Cc2ccc3ccccc3c2)C(=O)C12CCN(Cc1ccc(C)cc1)CC2 | > 6.8 | pIC50 (PBLUC_HILL_SLOPE 3.14, PBLUC_R_SQUARED 0.039, read-out: LUCIFERASE INFECTION ASSAY - IC50): 5.40 |
| Cc1[nH]c2c(F)cc(F)cc2c(=O)c1I | 9.47 | pIC50 (PBLUC_HILL_SLOPE 4.58, PBLUC_R_SQUARED 0.0894, read-out: LUCIFERASE INFECTION ASSAY - IC50): 5.23 |
| CN(Cc1ccc(C(=O)NC2CC2)cc1)S(=O)(=O)c1ccc(Br)s1 | 9.55 | pIC50 (PBLUC_HILL_SLOPE 16.6, PBLUC_R_SQUARED 0.228, read-out: LUCIFERASE INFECTION ASSAY - IC50): 5.08 |
| COc1ccc(OC)c(CCNc2nc3cnc(-c4ccccc4C)cc3n2C)c1 | 0.0474 | pIC50 (HEPG2TOX_HILL_SLOPE 0.343, HEPG2TOX_R_SQUARED 0.532, PBLUC_HILL_SLOPE 5.82, PBLUC_R_SQUARED 0.631, read-out: LUCIFERASE INFECTION ASSAY - IC50): 7.49 |
| COc1ccc(-c2cnn3ccc(NCc4cccnc4)nc23)cc1OC | 5.49 | pIC50 (HEPG2TOX_HILL_SLOPE 1.45, HEPG2TOX_R_SQUARED 0.956, PBLUC_HILL_SLOPE 2.78, PBLUC_R_SQUARED 0.698, read-out: LUCIFERASE INFECTION ASSAY - IC50): 5.60 |
| CCOc1cc(-c2nccc3cc(OC)c(OC)cc23)cc(OCC)c1OCC [OCTAVERINE] | 8.02 | pIC50 (PBLUC_HILL_SLOPE 10.1, PBLUC_R_SQUARED 0.35, read-out: LUCIFERASE INFECTION ASSAY - IC50): 5.19 |
| CCCCNC(=O)c1c(NC(=O)c2ccc(F)c(F)c2)nc2ccccn12 | 0.748 | pIC50 (FFLUC_HILL_SLOPE 25.4, FFLUC_R_SQUARED 0.228, HEPG2TOX_HILL_SLOPE 1.03, HEPG2TOX_R_SQUARED 0.844, PBLUC_HILL_SLOPE 2.52, PBLUC_R_SQUARED 0.719, read-out: LUCIFERASE INFECTION ASSAY - IC50): 6.50 |
| Cn1c(C=C2NC(c3cnccn3)=NO2)n[nH]c1=S | > 12 | pIC50 (PBLUC_HILL_SLOPE 0.666, PBLUC_R_SQUARED 0.147, read-out: LUCIFERASE INFECTION ASSAY - IC50): < 4.92 |

| SMILES | IC90 [µM] | further results |
| --- | --- | --- |
| CCCNC(=O)c1c(NC(=O)c2ccc(Cl)cc2Cl)nc2ccccn12 | 2.94 | pIC50 (FFLUC_HILL_SLOPE 16.3, FFLUC_R_SQUARED 0.135, HEPG2TOX_HILL_SLOPE 2.05, HEPG2TOX_R_SQUARED 0.922, PBLUC_HILL_SLOPE 37.2, PBLUC_R_SQUARED 0.437, read-out: LUCIFERASE INFECTION ASSAY - IC50): 5.56 |
| N#Cc1ccc(-c2cc(C3(CNc4cccc(OC(F)(F)F)c4)CC3)ccn2)cc1 | > 10 | pIC50 (PBLUC_HILL_SLOPE 1.65, PBLUC_R_SQUARED 0.178, read-out: LUCIFERASE INFECTION ASSAY - IC50): < 5.00 |
| COc1ccc(C=C(c2nc3ccccc3s2)c2nc3ccccc3s2)c(OC)c1OC | > 10 | pIC50 (HEPG2TOX_HILL_SLOPE 1.46, HEPG2TOX_R_SQUARED 0.78, PBLUC_HILL_SLOPE 2.12, PBLUC_R_SQUARED 0.479, read-out: LUCIFERASE INFECTION ASSAY - IC50): 5.15 |
| CCOC(=O)c1c(C)nn(-c2ccc(NC(=O)Nc3ccc(Cl)cc3)cc2)c1C | > 7.99 | pIC50 [1]: < 5.10 |
| CN(CC(=O)NC1CC1)C(=O)CNc1ccccc1Oc1ccccc1 | 4.68 | pIC50 (PBLUC_HILL_SLOPE 1.7, PBLUC_R_SQUARED 0.39, read-out: LUCIFERASE INFECTION ASSAY - IC50): 5.89 |
| O=C1NCC(COC(=O)c2ccc3c4c(cccc24)CC3)O1 (configuration not stated) | 3.64 | pIC50 (HEPG2TOX_HILL_SLOPE 2.53, HEPG2TOX_R_SQUARED 0.949, PBLUC_HILL_SLOPE 23.6, PBLUC_R_SQUARED 0.351, read-out: LUCIFERASE INFECTION ASSAY - IC50): 5.48 |
| CCc1ccc(S(=O)(=O)Nc2cc(Sc3ccc(C)cc3)c(O)c3ccccc23)cc1 | > 10 | pIC50 (PBLUC_HILL_SLOPE 1.24, PBLUC_R_SQUARED 0.466, read-out: LUCIFERASE INFECTION ASSAY - IC50): 5.22 |
| CCc1ccc(-c2csc(NC(=O)CCc3c(C)nc4nc(SC)nn4c3C)n2)cc1 | > 10 | pIC50 [1]: < 5.00 |
| Cc1[nH]ncc1CCCNc1nc(-c2ccsc2)nc2ccccc12 | > 10 | pIC50 (PBLUC_HILL_SLOPE 1.72, 3.12, PBLUC_R_SQUARED 0.159, 0.360, read-out: LUCIFERASE INFECTION ASSAY - IC50): 5.27 |
| Cc1ccc(C(=O)/C=C/C(=O)c2ccc(C)cc2)cc1 | > 10 | pIC50 (FFLUC_HILL_SLOPE 1.4, FFLUC_R_SQUARED 0.731, read-out: LUCIFERASE INFECTION ASSAY - IC50): < 5.00 |
| Cc1cc(/C=C/C(=O)Nc2nccs2)c(C)n1-c1ccccc1 | 3.27 | pIC50 (PBLUC_HILL_SLOPE 1.4, PBLUC_R_SQUARED 0.69, read-out: LUCIFERASE INFECTION ASSAY - IC50): 6.17 |
| CC(C)(c1ccccc1)c1ccc(OCC(O)CNCCSc2ccc(Br)cc2)cc1 (configuration not stated) | > 10 | pIC50 [1]: < 5.00 |
| Clc1ccc(-c2nnc(Sc3nc(-c4cccs4)ns3)[nH]2)cc1 | > 8.73 | pIC50 [1]: < 5.06 |
| C=CCc1c(C)[nH]c2c(-c3ccccc3)cnn2c1=O | 12.1 | pIC50 (PBLUC_HILL_SLOPE 3.12, PBLUC_R_SQUARED 0.621, read-out: LUCIFERASE INFECTION ASSAY - IC50): 5.22 |
| COc1ccc(Sc2sc(C(C)=O)cc2[N+](=O)[O-])cc1 | > 10.7 | pIC50 [1]: < 4.97 |
| c1ccc(-n2nnnc2Sc2ncnc3sc4c(c23)CCC4)cc1 | > 10 | pIC50 [1]: < 5.00 |
| O=S(=O)(NCCNc1ncnc2ccccc12)c1cccc(Cl)c1 | > 10 | pIC50 (HEPG2TOX_HILL_SLOPE 0.939, HEPG2TOX_R_SQUARED 0.791, read-out: LUCIFERASE INFECTION ASSAY - IC50): < 5.00 |
| Cc1ccc(/N=C2\SCC(C)N2C(=O)c2ccccc2SCC(=O)NCC2CCCCC2)c(C)c1 (configuration not stated) | > 10 | pIC50 (FFLUC_HILL_SLOPE 15, FFLUC_R_SQUARED 0.0481, HEPG2TOX_HILL_SLOPE 2.13, HEPG2TOX_R_SQUARED 0.879, PBLUC_HILL_SLOPE 4.29, PBLUC_R_SQUARED 0.235, read-out: LUCIFERASE INFECTION ASSAY - IC50): 5.09 |
| CN(C)CCCOc1ccc(-c2cn3c(-c4cccc(OC(F)(F)F)c4)cnc3cn2)cn1 | > 7.21 | pIC50 (PBLUC_HILL_SLOPE 15.4, PBLUC_R_SQUARED 0.0337, read-out: LUCIFERASE INFECTION ASSAY - IC50): 5.16 |
| COc1cc(OC)cc(C(=O)Nc2nc3ccccn3c2C(=O)NC2CCCC2)c1 | 3.15 | pIC50 (PBLUC_HILL_SLOPE 13.4, PBLUC_R_SQUARED 0.275, read-out: LUCIFERASE INFECTION ASSAY - IC50): 5.57 |
